Experimental data taken from patent US9540647B2, “Methods and compositions for the treatment of cancer” (University of South Alabama, priority 2010, dated 2017).
Entries after “also recorded” stand apart in the source; their conditions may differ.

How the values were obtained:
OPN = test: Secreted OPN in conditioned media of MDA-MB-435 cells (Western blot); assay type: cell-based, human; conditions: 10 μM and 20 μM cyclopamine vs DMSO
Protocol: (§1) Stable vector only and non-targeting (scrambled control) transfectants were also generated. Stable transfectants were selected on medium supplemented with 500 μg/ml Geneticin (Invitrogen). The four GLI1-knocked down clones chosen were based on the extent of GLI1 knockdown and were termed KO1, KO2, KO3, and KO4. The expression of OPN was restored in the KO1 cells by transfecting with pcDNA3.1-OPN. A corresponding vector-only transfectant was also generated. Transfectants were selected on medium containing Geneticin (500 μg/ml) and hygromycin (750 μg/ml). Serum-free conditioned medium harvested from approximately 3.0×10^6 cells after 24 hr was assayed for OPN by immunoblotting.
Western Blotting Analysis—Whole cell lysates were collected in Nonidet P-40 buffer (150 mM NaCl, 50 mM Tris, 1% Nonidet P-40). Isolation of cytosolic and nuclear fractions was done as previously reported (15). Total protein (30 μg) was resolved by SDS-PAGE gel and transferred to polyvinylidene difluoride membranes. […] Secreted OPN was assessed by loading an equal quantity of protein from the serum-free conditioned medium. […]

RAW264.7 cells [1] = test: Osteoclast resorption activity (OAAS plates); assay type: cell-based, murine
Protocol: Osteoclast differentiation and activity assays—Tartarate-resistant acid phosphatase (TRAP) assay was conducted for RAW 264.7 following the manufacturer's protocol (Sigma, St. Louis, Mo.). This assay was indicative of the extent of differentiation. OAAS plates (Osteogenic Core Technologies, Choongnam, Republic of Korea) were utilized to measure osteoclastic activity. RAW 264.7 cells (25×103) were inoculated in 48-well plates. Cells were treated with serum-free conditioned media from breast cancer cells or 100 nM SHH or 100 ng/ml OPN on the following day. Media was changed every two days and the experiments were terminated either on day 6 (day 7 for knockdown experiments, with transfections being done on the sixth day). At the completion, cells were detached with 5% sodium hypochlorite and the wells were observed under a Nikon Eclipse TS 100 microscope at 10× magnification. […] The percentage of area resorbed was calculated using the NIS-Elements BR. 3.1 software.

RAW264.7 cells [2] = test: Osteoclast differentiation (TRAP assay); assay type: cell-based, murine
Protocol: Cell lines—Human metastatic breast cancer cells, MDA-MB-231, were cultured in Dulbecco's Modified Eagle's Medium (DMEM/F12; Invitrogen, Carlsbad, Calif.), supplemented with 2 mM L-glutamine, 1 mM sodium pyruvate, 0.02 mM non-essential amino acids, 5% fetal bovine serum, FBS (Atlanta Biologicals, Norcross, Ga.), without antibiotics or antimycotics (cDME/F12). SUM1315 and SUM159 cells (DiMeo, T. A., et al. (2009) Cancer Res 69, 5364-5373) (Asterand, Detroit, Mich.) were cultured in DMEM/F12 supplemented with […], 5% FBS (Atlanta Biologicals) and either 10 ng/ml EGF or 1 ng/ml hydrocortisone, without antibiotics or antimycotics. The SUM1315 cells are derived from a metastasis in a patient with infiltrating ductal carcinoma; SUM159 cells were derived from a primary breast tumor with metaplastic carcinoma. RAW264.7 (ATCC, TIB 71) cells, a murine pre-osteoclastic line capable of differentiation and […] in culture (in presence of RANKL and MCSF), were grown in DMEM with L-glutamine (ATCC, 30-2002) supplemented with 10% FBS. A 2× differentiation medium (DM) was formulated for the RAW 264.7 cells comprising RAW264.7 growth medium supplemented with 20% FBS, RANKL (100 ng/ml) and M-CSF (40 ng/ml) (Matsubara, T., et al. J Bone Miner Res 25, 1068-1076). Conditioned media was harvested from breast cancer cells and mixed in a 1:1 ratio with double strength differentiation medium to assess the effect on osteoclast differentiation. 1×DM was used as control or wherever SHH (R & D Systems, Minneapolis, Minn.) or OPN (R & D Systems) was used alone. The medium on the RAW264.7 cells was replenished every 48 hours. In order to assess the effect of secreted Hh ligands, the neutralizing 5E1 antibody was used (Developmental Studies Hybridoma Bank, at the University of Iowa, Iowa). […] Medium was supplemented with 5E1 (2.5 μg/ml) and was changed on alternate days until the end of the experiment. The effect of OPN on osteoclast activity was assessed by transfecting an OPN shRNA-expressing construct on day 6 post-induction of differentiation. Fresh DM was added the following day and cells were allowed to grow for another 12 hours before termination of experiment. GLI1 expression was silenced in the SUM1315 cells using shRNA targeting GLI1 into pSuperior. gfp+neo (Oligoengine, WA, USA). Silencing of OPN expression was done using OPN-targeting shRNA cloned into pSuper (Oligoengine)
Osteoclast differentiation and activity assays—Tartarate-resistant acid phosphatase (TRAP) assay was conducted for RAW 264.7 following the manufacturer's protocol (Sigma, St. Louis, Mo.). This assay was indicative of the extent of differentiation. […] The percentage of area resorbed was calculated using the NIS-Elements BR. […]

OPN mRNA = test: OPN transcript levels by real-time RT-PCR in metastatic melanoma cell lines; assay type: cell-based, human; conditions: for levels of OPN mRNA: cyclopamine 24 h, qRT-PCR
Protocol: This medium was replaced with fresh cyclopamine-containing medium after 12 h. […] RNA was assessed by real-time RT-PCR for OPN transcript levels.
as §1
Quantitative RT-PCR (qRT-PCR)—cDNA was generated using High Capacity Reverse Transcriptase Kit (Applied Biosystems, Foster City, Calif.). Real time PCR was performed using a Bio-Rad iQ5 Real-Time Detection system (Bio-Rad). All reactions were done as three independent replicates. All assays were done using the TaqMan Gene Expression Assays from Applied Biosystems. OPN (SPP1: Hs 00959010_m1) transcript levels were normalized to glyceraldehyde-3-phosphate dehydrogenase (Hs 99999905_m1) levels (δCT), which was used to calculate changes in OPN expression (2^−δδCT). […] GLI1 and SHH (Hs 00179843_m1) expressions were also similarly assessed with glyceraldehyde-3-phosphate dehydrogenase as an endogenous control. To analyze the knockdown effectiveness, “scrambled transfectants” of MDA-MB-435 was set as calibrator.

Row | Compound | OPN in the secretome (OPN) | ability of osteoclasts to resorb matrix (RAW264.7 cells [1]; cyclopamine (20 μM), stimulated with breast cancer conditioned medium) | ability of tumor cells to induce osteoclast differentiation (RAW264.7 cells [2]; conditioned medium from MDA-MB-435 cells treated with cyclopamine) | ability of osteoclasts to differentiate (RAW264.7 cells [2]; cyclopamine (20 μM), DM and breast cancer cell-conditioned medium) | levels of OPN mRNA (OPN mRNA; MCC012A cells) | levels of OPN mRNA (OPN mRNA; MCC012F cells) | levels of OPN mRNA (OPN mRNA; MDA-MB-435 cells) | resorption activity of differentiated osteoclasts (RAW264.7 cells [1]; DM with OPN (100 ng/ml) or SHH (100 nM)) | numbers of multinucleate TRAP-positive cells (RAW264.7 cells [2]; DM supplemented with OPN (100 ng/ml) or SHH (100 nM) vs DM) | OPN transcript levels, rescue of cyclopamine inhibition (OPN mRNA; MDA-MB-435 cells, cyclopamine 20 μM, after 12 hr medium with recombinant SHH (100 nM))
1 | CC1=C2C[C@H]3[C@@H](CC=C4C[C@@H](O)CC[C@@]43C)[C@@H]2CC[C@]12O[C@@H]1C[C@H](C)CN[C@H]1[C@H]2C [cyclopamine] | decreased | significantly (*p<0.0001) compromises their ability to resorb matrix | significant reduction | significantly (*p<0.0001) compromises their ability to differentiate | decreases the levels of OPN mRNA | decreases the levels of OPN mRNA | decreases the levels of OPN mRNA in a dose-dependent manner |  |  | 
2 | SHH: recombinant Sonic Hedgehog ligand (R & D Systems) |  |  |  |  |  |  |  | significantly (* indicates p<0.001) increases the resorption activity | potentiates differentiation; also recorded: stimulate osteoclast differentiation; also recorded: significantly (* indicates p<0.005) increases | able to rescue the inhibitory effects of cyclopamine
